Among the data in US7033997B2, “Use of natriuretic peptides as antibiotically active substances for the treatment of bacterial infections” (Pharis Biotec GmbH, priority 1999, dated 2006) are growth-inhibiting effect and inhibition halos values, retold here.

What all share (type): cell-based
One assay deals with Streptococcus carnosus. Briefly: Radial diffusion growth inhibition test according to Lehrer et al. To be noted: for growth-inhibiting effect: Gram-positive bacteria. From the text: (§1) The peptides to which this invention relates are members of the family of natriuretic peptides. […] The form of ANP which occurs in the kidneys, urodilatin, was first isolated in 1988 by Forssmann et al. (Schulz-Knappe et al., 1988). […] A useful test for recognizing antibiotic activity is the growth inhibition test of Lehrer et al. (Lehrer et al. J. Immun. Methods, Vol. 137, p. 167, 1991).
(§2) Radial diffusion growth inhibition test with Streptococcus carnosus and N. cinerea according to Lehrer et al. (Lehrer et al., J. Immun. Methods, Vol. 137, p. 167, 1991).
(§3) The purity and identity of the peptides is determined by mass spectrometry (quadrupole electrospray mass spectrometry, Sciex API 111, Perkin Elmer) and sequencing in a gas-phase sequencer (model 470, Applied Biosystems, Weiter-stadt) and checked by capillary zone electrophoresis. The biological activity is verified by the growth inhibition test.

The next assay relates to N. cinerea. The description is as above. Particulars: for growth-inhibiting effect: Gram-negative bacteria.
Text: as §1, §2, §3

The test system of a further assay is M. luteus. Put plainly: Growth inhibition test. Particulars: Gram-positive bacteria. The procedure: as §1, §3
The subject of another assay is S. cerevisiae. Put plainly: Growth inhibition test. Particulars: yeast S. cerevisiae. On the procedure:
as §1, §3

The test system of a further assay is P. fluorescens. Briefly: Growth inhibition test. To be noted: Gram-negative bacteria. On the procedure: as §1, §3
The next assay has as its system B. subtilis. Put plainly: Growth inhibition test. Particulars: Gram-positive bacteria. On the procedure: as §1, §3
For a further assay, the system named is E. coli. Put plainly: Growth inhibition test. To be noted: Gram-negative bacteria. On the procedure:
as §1, §3

Setting [1] is: after application of 1 μg, Streptococcus carnosus.

On to `CC[C@H](C)[C@@H]1NC(=O)[C@H](CCCNC(=N)N)NC(=O)[C@H](CC(=O)O)NC(=O)[C@H](CCSC)NC(=O)[C@H](CCCNC(=N)N)NC(=O)CNC(=O)CNC(=O)[C@H](Cc2ccccc2)NC(=O)[C@@H](NC(=O)[C@H](CO)NC(=O)[C@H](CO)NC(=O)[C@H](CCCNC(=N)N)NC(=O)[C@H](CCCNC(=N)N)NC(=O)[C@H](CC(C)C)NC(=O)[C@@H](N)CO)CSSC[C@@H](C(=O)N[C@@H](CC(N)=O)C(=O)N[C@@H](CO)C(=O)N[C@@H](Cc2ccccc2)C(=O)N[C@@H](CCCNC(=N)N)C(=O)N[C@@H](Cc2ccc(O)cc2)C(=O)O)NC(=O)CNC(=O)[C@H](CC(C)C)NC(=O)CNC(=O)[C@H](CO)NC(=O)[C@H](CCC(N)=O)NC(=O)[C@H](C)NC(=O)CNC1=O` [ANP], for which the growth-inhibiting effect result in the assay on Streptococcus carnosus (S. carnosus), with N. cinerea, in the assay with M. luteus, in the assay on S. cerevisiae, in the assay on P. fluorescens and in the assay on B. subtilis was “growth-inhibiting effect” in each case. Further, the growth-inhibiting effect result in the assay on E. coli is recorded as “growth-inhibiting effect”. The inhibition halos result in the assay with Streptococcus carnosus (setting [1]) and in the assay on N. cinerea (after application of 1 μg) was “inhibition halos can be observed” each time.
For the molecule “Gly-Leu-Ser-Lys-Gly-Cys-Phe-Gly-Leu-Lys-Leu-Asp-Arg-Ile-Gly-Ser-Met-Ser-Gly-Leu-Gly-Cys (GLSKGCFGLKLDRIGSMSGLGC; listed as Homo sapiens) [CNP]”, the inhibition halos entry was “inhibition halos can be observed” in the assay with Streptococcus carnosus (after application of 7 μg, S. carnosus) and “inhibition halos can be observed” in the assay on N. cinerea (after application of 11 μg).
On to “Thr-Ala-Pro-Arg-Ser-Leu-Arg-Arg-Ser-Ser-Cys-Phe-Gly-Gly-Arg-Met-Asp-Arg-Jle-Gly-Ala-Gln-Ser-Gly-Leu-Gly-Cys-Asn-Ser-Phe-Arg-Tyr [urodilatin]”, for which the growth-inhibiting effect result in the assay with Streptococcus carnosus (S. carnosus), in the assay on N. cinerea, in the assay on M. luteus, in the assay on S. cerevisiae, in the assay on P. fluorescens and with B. subtilis was “growth-inhibiting effect” in each case. The growth-inhibiting effect entry in the assay with E. coli was “growth-inhibiting effect”. For the same molecule, the inhibition halos result in the assay on Streptococcus carnosus (setting [1]) and with N. cinerea (after application of 1 μg) was “inhibition halos can be observed” each time.
